Measurements from patent US20070128665A1, “Methods for identifying compounds interacting with small membrane-bound gtp-ases” (priority 2003, published 2007).
Where two headings read alike, the source gives them in different places.

Assays:
[1] = tested on: CAPRI C2A/C2B domains; assay: GFP-C2A/C2B localisation, live confocal microscopy, COS-7 cells; assay type: cell-based
Procedure: Experiments were performed to assess expression of GFP-C2A/C2B domain COS-7 cells imaged by live confocal microscopy. Cells were transfected with GFP-C2A/C2B vector by lipofection and imaged 24 hours later. […] Nuclear GFP-C2A/C2B is diffusely localised throughout the nucleoplasm before stimulation (due to size of the fusion protein). […] The stimulated association/disassociation of these structures are probably due to a specific interaction with endogenous entities near the plasma membrane and within the perinuclear region, rather than non-specific aggregation (see 20 second image).

[2] = tested on: membrane bound active Ras (H-Ras); settings: 100 μM histamine
Excerpt: FIG. 9. […] Dissociation of the RBD from the plasma membrane is expressed as Relative Dissociation=maximal pixel intensity of cytosolic ROI (usually at time zero) divided by the cytosolic ROI at time x during the experiment.
(§1) Relative Dissociation=maximal pixel intensity of cytosolic ROI (usually at time zero) divided by the cytosolic ROI at time x during the experiment.

[3] = tested on: membrane bound active Ras (H-Ras); assay: GFP-RBD dissociation in H-Ras transfected CHO.T cells; assay type: cell-based; settings: ATP 50 μM
Excerpt: FIG. 6. […] GFP-RBD is localised to the plasma membrane and endomembranes in non-starved, H-Ras transfected CHO.T cells.

[4] = tested on: membrane bound active Ras (H-Ras); assay: RAPID assay (Ras Activity Probe for Inhibitor Detection), GFP-RBD reporter, COS-7 cells; assay type: cell-based; settings: 50 μM ATP
Procedure: COS-7 cells were grown in DMEM supplemented with 10% FCS. The day before transfection cells were seeded out on 6-well tissue culture plates containing 22 mm circular glass coverslips to obtain a confluency of 50-60% prior to transfection. DNA constructs (pcDNA3.1 H-Ras, pEGFP-C3 RBD and optionally pCl-neo CAPRI) were incubated with Genejuice (Novagen) according to manufacturers instructions and added to the cell medium to transfect (lipofect) cells. 24 hours later coverslips were mounted in a heated stage (37° C.) in KH buffer [5 mM HEPES, 10 mM glucose, 25 mM NaHCO3 1.2 mM K2HPO4, 118 mM NaCl, 4.7 mM KCl, 1.2 mM MgSO4, 1.3 mM CaCl2 (pH 7.4)]. Nipkow confocal microscopy was performed using a PerkinElmer UltraView LCI system to image GFP. […] Inhibition of Ras activation, or deactivation of active Ras, was detected by dissociation of the fluorescent […] reporter from the plasma and/or Golgi membranes, into the cytosol. This was seen as a loss of fluorescent signal from the membrane/increase in fluorescent signal in the cytosol.
The inverse relative change in fluorescence intensity at a given time point is expressed as, 1−(cytosolic fluorescence intensity/maximum experimental cytosolic fluorescence intensity)
as §1

[5] = tested on: CAPRI; assay: GFP-CAPRI translocation assay, live confocal imaging, HeLa cells; assay type: cell-based; settings: HeLa cells expressing GFP-C2B; carbachol stimulation
Procedure: The ability of the activating peptide to induce translocation of CAPRI to the plasma membrane can be monitored by applying cell-permeable peptide to live cells expressing GFP-tagged CAPRI imaged by confocal or wide-field microscopy. Experiments were performed to assess expression of GFP-C2B compared with GFP-CAPRI in HeLa cells 24 hrs after transient transfection by lipofection. Live imaging was performed by confocal microscopy. The results are shown in FIG. 3, the image for GFP-C2B is shown on the left hand side, GFP-CAPRI images at 0 s, 30 s and 60 s are shown on the right. Cells expressing GFP-CAPRI were stimulated with carbachol to mobilise intracellular Ca^2+, time=seconds after stimulation. […] CAPRI activating peptides induce the translocation of GFP-CAPRI to the plasma membrane in the absence of agonist stimulation.

Question: C[C@H](CCC(=O)O)C[C@H](C)C[C@H](C)C(=O)/C=C(\O)[C@H](C)C[C@H](C)C/C=C/[C@@H](C)[C@@H](O)[C@@H](C)[C@@H](O)C[C@@H]1CC[C@@](C)([C@H]2CC[C@@](C)([C@@H](C)O)O2)O1 [ionomycin] was tested. Which “redistribution of GFP-C2A/C2B chimera” value ([1]; COS-7 cells, ionomycin stimulation) did it give?
Answer: The value was “forms punctate vesicular structures under the plasma membrane”.

Question: What does the source list for NCCc1c[nH]cn1 [histamine]?
Answer: deactivation of Ras (GFP-RBD dissociation), control cells ([2]; HeLa cells transfected with H-Ras and GFP-RBD only, or GAP-dead CAPRI (R47S mutant)): no detectable deactivation; dissociation of GFP-RBD from the plasma membrane (Ras deactivation) ([2]; non-starved HeLa transfected with H-Ras, GFP-RBD and CAPRI): rapid dissociation of the GFP-RBD from the plasma membrane

Question: What does the source list for Nc1ncnc2c1ncn2[C@@H]1O[C@H](COP(=O)(O)OP(=O)(O)OP(=O)(O)O)[C@@H](O)[C@H]1O [ATP]?
Answer: deactivation of Ras at the plasma membrane (GFP-RBD dissociation) ([3]; CHO cells stably expressing CAPRI, H-Ras transfected, non-starved): rapid deactivation of Ras at the plasma membrane; GFP-RBD dissociation, parental cells ([3]; parental CHO.T cells): No such dissociation; deactivation of Ras (GFP-RBD dissociation), control cells ([4]; COS cells transfected with H-Ras and GFP-RBD only, or GAP-dead CAPRI (R47S mutant)): no detectable deactivation; dissociation of GFP-RBD from the plasma membrane (Ras deactivation) ([4]; non-starved COS-7 transfected with H-Ras, GFP-RBD and CAPRI): rapid dissociation of the GFP-RBD exclusively from the plasma membrane

Question: For O=C(O)CN(CCOCCOCCN(CC(=O)O)CC(=O)O)CC(=O)O [EGTA], which “dissociation of GFP-C2A/C2B chimera from the membrane” value ([1]; COS-7 cells after ionomycin, 5 μM EGTA in extracellular medium) is on record?
Answer: Its value is “rapid dissociation of the GFP-C2A/C2B chimera from the membrane into the cytosol and nucleoplasm”.

Question: How did the GFP-C2B localisation [5] turn out when C[N+](C)(C)CCOC(N)=O [carbachol] was run?
Answer: Its GFP-C2B localisation is “No detectable effect”.
